{
  "source": "patent US11014961B2",
  "about": "“Self-labeling miniproteins and conjugates comprising them” (priority 2017, dated 2021)",
  "key": {"proteinase K": {"target": "T1, proteinase K (Parengyodontium album, UniProt P06873)", "T1 construct": "purchased Amresco", "T1 sequence (P06873 106-384)": "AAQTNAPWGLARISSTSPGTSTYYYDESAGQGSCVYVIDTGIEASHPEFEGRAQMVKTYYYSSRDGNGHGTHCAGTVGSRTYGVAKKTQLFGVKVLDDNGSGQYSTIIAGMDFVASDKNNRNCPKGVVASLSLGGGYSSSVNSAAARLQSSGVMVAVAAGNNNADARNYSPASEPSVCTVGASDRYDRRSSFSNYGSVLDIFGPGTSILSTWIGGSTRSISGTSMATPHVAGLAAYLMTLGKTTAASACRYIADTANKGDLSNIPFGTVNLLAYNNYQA", "test": "Protease digestion with proteinase K (LC-MS fraction remaining)", "format": "in vitro ADME", "conditions": "100 μM peptide", "method": "Reactions were performed using 100 μM peptide with […] of proteinase K for general cleavage with the addition of 1 mM CA for C11A and C11S digestions. Reactions were quenched with 49.75% water, 49.75% ACN and 0.5% TFA at selection time point and analyzed by LCMS. TIC-based integrated peak areas were used to determine the amount of material in a given time point normalized to the starting amount. These normalized values there then concerted to fraction remaining and plotted as shown."}, "[1]": {"test": "Second order rate constant of the reaction between miniprotein (MP) and capture agent (CA), LC-MS TIC peak integration", "format": "biochemical", "conditions": "for Second order rate constant: 0.1 mM MP, 0.5 mM CA, 5 mM TCEP, 1× selection buffer pH 7.4, RT; for reactivity with the CA (in words) / fold increase of second order rate constant relative to MP01: standard reaction conditions; for Rate: Table 4, reaction rates of self-labeling miniprotein sequences"}, "[2]": {"test": "Labeling conversion of MP with the modified capture agent (LC-MS TIC)", "format": "biochemical", "conditions": "0.5 mM mCA, 0.1 mM MP, 5 mM TCEP, 1× selection buffer, pH 7.4", "method": "A solution consisting of 5 mM carboxy-(PEG)12-thiol, 500 mM pentafluorophenyl sulfide, 20 mM triphenylphosphine and 230 mM DIEA in acetonitrile was vortexed and left at room temperature for 4 hours. The reaction was then diluted with 10.6× volume of 95% A: 5% B, solid phase extracted and lyophilized. The resulting material was analyzed by LCMS (method 2). This product will later be referred to as mCA (modified CA).\nAll 10 putative self-labeling MPs were chemically synthesized (MP01 and MP02 were additionally made with the full C-terminal constant region). To determine the importance of the C-terminal tag, a kinetic analysis on MP01 was conducted comparing the sequence with and without the tag. […] The remainder of the MPs all reacted with varying second order rate constants and to differing product distributions from multiple cysteine labeling sites (Table 3). […] Of the sequences containing multiple cysteines, all reacted to differing extents. […] On the other hand, MP08 (SEQ ID NO: 53) reacted sluggishly (0.04 μM^−1 s^−1) to produce singly and doubly labeled species. The sole sequence containing three cysteines, MP05 (SEQ ID NO: 44), yielded a mixture of labeled species within an 8-hour reaction—primarily existing with either 2 or 3 labels with a rapid initial labeling process (0.93±0.11 μM^−1 s^−1). […]"}, "[3]": {"test": "Labeling conversion of MP with the selection capture agent (LC-MS TIC)", "format": "biochemical", "conditions": "0.5 mM CA, 0.1 mM MP, 5 mM TCEP, 1× selection buffer, pH 7.4", "method": "All 10 putative self-labeling MPs were chemically synthesized (MP01 and MP02 were additionally made with the full C-terminal constant region). To determine the importance of the C-terminal tag, a kinetic analysis on MP01 was conducted comparing the sequence with and without the tag. […] The remainder of the MPs all reacted with varying second order rate constants and to differing product distributions from multiple cysteine labeling sites (Table 3). […] Of the sequences containing multiple cysteines, all reacted to differing extents. […] On the other hand, MP08 (SEQ ID NO: 53) reacted sluggishly (0.04 μM^−1 s^−1) to produce singly and doubly labeled species. The sole sequence containing three cysteines, MP05 (SEQ ID NO: 44), yielded a mixture of labeled species within an 8-hour reaction—primarily existing with either 2 or 3 labels with a rapid initial labeling process (0.93±0.11 μM^−1 s^−1). Finally, MP01, 07 and 10 (SEQ ID NOs: 13, 52, and 59, respectively) were probed via proteolytic digest-LC-MS/MS analysis, this confirmed that the cysteines were labeled and not an alternative amino acid. […] Conditions used were 0.5 mM CA, 0.1 mM MP, 5 mM TCEP, 1× selection buffer, pH 7.4."}, "[4]": {"conditions": "a: average of three MP concentrations, c: labeled 1-3 times, d: labeled 1-2 times"}},
  "note": "Residues, ends and D or L forms follow the SMILES beside them. No end group written: not given here. *: point of attachment. X1 = O=C(CCCC[C@@H]1SC[C@@H]2NC(=O)N[C@@H]21)NCCCC[C@H](NC(=O)CCOCCOCCOCCOCCOCCOCCOCCOCCOCCOCCOCCOCCSc1c(F)c(F)c(Sc2c(F)c(F)c(*)c(F)c2F)c(F)c1F)C(=O)O",
  "data": [
    {"compound": "CSCC[C@H](NC(=O)[C@H](CCCCN)NC(=O)[C@H](Cc1ccc(O)cc1)NC(=O)[C@H](CCCCN)NC(=O)[C@H](CCC(N)=O)NC(=O)[C@H](CC(N)=O)NC(=O)[C@@H](N)CCSC)C(=O)N[C@@H](C)C(=O)N[C@@H](CCCCN)C(=O)N[C@@H](C)C(=O)N[C@@H](CSc1c(F)c(F)c(Sc2c(F)c(F)c(SCCOCCOCCOCCOCCOCCOCCOCCOCCOCCOCCOCCOCCC(=O)N[C@@H](CCCCNC(=O)CCCC[C@@H]3SC[C@@H]4NC(=O)N[C@@H]43)C(=O)O)c(F)c2F)c(F)c1F)C(=O)N[C@@H](Cc1ccccc1)C(=O)N[C@@H](Cc1ccccc1)C(=O)N[C@@H](C)C(=O)N[C@@H](Cc1ccccc1)C(=O)N[C@@H](CC(C)C)C(=O)N[C@@H](CCC(=O)O)C(=O)N[C@@H](Cc1c[nH]cn1)C(=O)N[C@@H](CC(C)C)C(=O)N[C@@H](CCCCN)C(=O)N[C@@H](CCCCN)C(=O)N[C@@H](CCCNC(=N)N)C(=O)N[C@@H](CCCCN)C(=O)N[C@@H](CC(C)C)C(=O)N[C@@H](Cc1ccc(O)cc1)C(=O)N1CCC[C@H]1C(=O)N[C@@H](CCSC)C(=O)N[C@@H](CO)C(=O)NCC(N)=O", "note": "[Gen4-CA] (H-MNQKYKMAKAC(X1)FFAFLEHLKKRKLYPMSG-NH2)", "values": [
      {"measurement": "protease stability", "setting": "proteinase K", "value": "significantly increased protease resistance"}
    ]},
    {"compound": "KMTKDCFFSFL-NH2 [MP01-T, KMTKDCFFSFL]", "values": [
      {"measurement": "Second order rate constant", "setting": "[1]; [4]", "value": 0.06, "unit": "M⁻¹ s⁻¹"},
      {"measurement": "reactivity with the CA (in words)", "setting": "[1]", "value": "severely diminished activity"}
    ]},
    {"compound": "MGHLHICMVWRVNTSGHILSVGHKSYSSHKTG-NH2 [MP13]", "values": [
      {"measurement": "Rate", "setting": "[1]", "value": 2.41, "unit": "M⁻¹ s⁻¹"}
    ]},
    {"compound": "MGIVHNATRFPKRCFYSFIATRQSKNSIRVSG-NH2 [MP06]", "values": [
      {"measurement": "Second order rate constant", "setting": "[1]; [4]", "value": "0.11 ± 0.01", "unit": "M⁻¹ s⁻¹"}
    ]},
    {"compound": "MHAKYKMAKACFFAFLAHLKKRKLYPMSG-NH2 [Gen 2-Q3A]", "values": [
      {"measurement": "reactivity with the CA (in words)", "setting": "[1]", "value": "no alteration"}
    ]},
    {"compound": "MHHYCSKMKRRILMHYLFANTMAHRDLGTNG-NH2 [MP15]", "values": [
      {"measurement": "Rate", "setting": "[1]", "value": 10.09, "unit": "M⁻¹ s⁻¹"}
    ]},
    {"compound": "MHLRMIRYLNRRRHLCHVVEIRHGLFASREIG-NH2 [MP16]", "values": [
      {"measurement": "Rate", "setting": "[1]", "value": 0.19, "unit": "M⁻¹ s⁻¹"}
    ]},
    {"compound": "MHMHKTTSYRIRVLVGVDVYRMSHTCLTSSSG-NH2 [MP19]", "values": [
      {"measurement": "Rate", "setting": "[1]", "value": 0.21, "unit": "M⁻¹ s⁻¹"}
    ]},
    {"compound": "MHNAYLRKSMRQLCYFRRTLHNIHVMSHRG-NH2 [MP10]", "values": [
      {"measurement": "conversion with modified CA (mCA)", "setting": "[2]", "value": 96, "unit": "%"},
      {"measurement": "conversion with selection CA", "setting": "[3]", "value": 91, "unit": "%"},
      {"measurement": "rate enhancement over a non-selected Cys peptide", "setting": "[1]", "value": "~529", "unit": "×"},
      {"measurement": "Second order rate constant", "setting": "[1]; [4]", "value": "1.66 ± 0.48^a M^−1 s^−1"}
    ]},
    {"compound": "MHQKYKMAAACFFAFLAHLKKRKLYPMSG-NH2 [Gen 2-K9A]", "values": [
      {"measurement": "reactivity with the CA (in words)", "setting": "[1]", "value": "no alteration"}
    ]},
    {"compound": "MHQKYKMAKACFFAFLAHHKKRKLYPMSG-NH2 [triple alanine variant]", "values": [
      {"measurement": "Second order rate constant", "setting": "[1]", "value": 1.82, "unit": "M⁻¹ s⁻¹"},
      {"measurement": "fold increase of second order rate constant relative to MP01", "setting": "[1]", "value": 6.3, "unit": "fold"}
    ]},
    {"compound": "MHQKYKMAKACFFAFLAHLAKRKLYPMSG-NH2 [Gen 2-K20A]", "values": [
      {"measurement": "reactivity with the CA (in words)", "setting": "[1]", "value": "no alteration"}
    ]},
    {"compound": "MHQKYKMAKACFFAFLAHLKKRKLYPMSG-NH2 [MP01-Gen2]", "values": [
      {"measurement": "fold increase of second order rate constant relative to MP01", "setting": "[1]", "value": 32.2, "unit": "fold"}
    ]},
    {"compound": "MHQKYKMAKACFFAFLEHLKKRKLYPMSG-NH2 [Gen3_1]", "values": [
      {"measurement": "reactivity with the CA (in words)", "setting": "[1]", "value": "increased the rate of reaction"}
    ]},
    {"compound": "MHQKYKMTKDCFFSFLAHLKKRKLYPMSG-NH2 [MP01-H19L]", "values": [
      {"measurement": "fold increase of second order rate constant relative to MP01", "setting": "[1]", "value": 7.5, "unit": "fold"}
    ]},
    {"compound": "MHQKYKMTKDCFFSFLAHVKKRKLYPMSG-NH2 [MP01-H19V]", "values": [
      {"measurement": "reactivity with the CA (in words)", "setting": "[1]", "value": "progressively improved rate constants"}
    ]},
    {"compound": "MHQKYKMTKDSFFSFLAHHKKRKLYPMSG-NH2 [SEQ ID NO: 91]", "values": [
      {"measurement": "reactivity with the CA (in words)", "setting": "[1]", "value": "all reactivity was lost"}
    ]},
    {"compound": "MHTSLRSRAKSHSRSFGKCASIYTRYLKMG-NH2 [MP20]", "values": [
      {"measurement": "Rate", "setting": "[1]", "value": 1.22, "unit": "M⁻¹ s⁻¹"}
    ]},
    {"compound": "MKTFSSDQRFSKKCYRIYFHKLRQRNHNTSVG-NH2 [MP07]", "values": [
      {"measurement": "Second order rate constant", "setting": "[1]; [4]", "value": "0.91 ± 0.14^a M^−1 s^−1"}
    ]}
  ]
}
